Measurements reported in patent publication US11535633B2, “Fused tricyclic heterocycle compounds and therapeutic uses thereof” (Jiangsu Hengrui Medicine Co., Ltd., priority 2018, dated 2022).

How the values were obtained:
[1] = biological target: T1, hSTING c-terminal domain (purified hSTING aa154-342) (Homo sapiens, UniProt Q86WV6); test: Thermal shift assay for measuring the relative binding affinity to hSTING c-terminal domain; details: Tm of sample minus mean Tm of negative control (buffer, 2% DMSO), SYPRO Orange
T1 construct: Purified hSTING (aa154-342)
Protocol: Test Example 1. Thermal Shift Assay for Measuring the Relative Binding Affinity to hSTING c-Terminal Domain
From each of the 10 mM stock solutions of compounds in DMSO, dilutions are made to create samples with three concentrations 10 mM, 5 mM and 2.5 mM. From these dilutions a final 50 fold dilution is made into assay buffer, giving concentrations of 200 μM, 100 μM, and 50 μM. From each of the buffer dilutions, 5 μL is added to the 384 well assay plate. A positive control is setup with cGAMP using the same dilution scheme as the ligands. A baseline thermal shift for the negative control is determined using buffer and 2% DMSO.
An aliquot of protein is thawed on ice and SYPRO orange reagent is brought to room temperature. The 5000× SYPRO orange stock is diluted in assay buffer to a concentration of 10×. Protein is diluted to a concentration of 10 μM in the prepared buffer/dye solution. Five micro-liters of protein/buffer/dye solution is added to each of the sample and control wells, and the plate is sealed with the provided films. The plate is centrifuged for 5 min at 20° C. at 1000 rpm.
On the Light Cycler instrument, measurements are made over a temperature gradient from 20° C. to 99° C. at 0.07° C./s and data acquisitions collected at a rate of 8/° C. is used to measure the change in fluorescence as a function of temperature. Data analysis is performed using the Roche Light Cycler Software to determine the melting temperature (Tm ° C.) of each sample. A mean Tm ° C. for the negative control is calculated and subtracted from each of the samples to generate the ΔTm ° C. values for each of the ligands.
The relative binding affinity to hSTING c-terminal domain of the compounds of the present invention was determined by the above assay, and ΔTm ° C. values are shown in the following table 1.

[2] = biological target: T2, STING in THP1-Dual KI-hSTING-R232 cells (Homo sapiens, UniProt Q86WV6, H232R); test: Human THP1 reporter cell assay (IRF luciferase reporter); format: cell-based; details: 24 hours incubation
T2 construct: host or cells: THP1-Dual KI-hSTING-R232 cells (human monocytic THP-1 reporter line)
Protocol: Test Example 2. Human THP1 Reporter Cell Assay
• 1. Human THP1-Dual KI-hSTING-R232 Cells (InvivoGen, Cat. #thpd-r232) • 2. QUANTI-LUC (InvivoGen, Cat. #rep-qlc2) • 3. Media for cell culture and compound dilution: RPMI with high glucose and glutamine (Genesee, Cat. #25-506), 10% fetal bovine serum (Life Technologies, Cat. #10082147), 25 mM HEPES (Genesee, Cat. #25-534), 100 μg/ml Normocin (InvivoGen, Cat. #ant-nr-2), 10 μg/ml blasticidin (InvivoGen, Cat. #ant-bl-05), 100 μg/ml Zeocin (InvivoGen, Cat. #ant-zn-5p) and Penicillin-Streptomycin (100×) (Life Technologies, Cat. #15140122) • 4. Infinite M1000 plate reader (TECAN) Experimental Procedure
Activation of STING in THP1-Dual KI-hSTING-R232 cells was determined by measuring the luminescence signal resulting from the expression of the IRF luciferase reporter gene. All reagent preparation and assay procedures were conducted according to the protocols provided by InvivoGen. In brief, test compounds and cells (1×10^5 cells per well) were dispensed into 96-well plates with a final volume per well of 150 μl. Plates were incubated in a humidified, 5% CO2 incubator at 37° C. for 24 hours. The expression level of the reporter gene was measured by transferring 20 μl of the supernatant to a non-transparent 96-well plate to which 50 μl of QUANTI-LUC was dispensed into each well. The resulting luminescence signal was immediately read using a TECAN plate reader. The background luminescence signal from media was subtracted. The fold induction effect of the luminescence signal at each compound concentration was determined relative to controls that lack compound treatment. The plot of fold induction effect versus the log of compound concentration was fit in GraphPad Prism with a 4-parameter concentration response equation to calculate EC50 and Emax.
Activation of STING in THP1 of the compounds in the present invention was determined by the above assay, and EC50 values are shown in the following table 2.

T2 sequence (Q86WV6 whole entry H232R): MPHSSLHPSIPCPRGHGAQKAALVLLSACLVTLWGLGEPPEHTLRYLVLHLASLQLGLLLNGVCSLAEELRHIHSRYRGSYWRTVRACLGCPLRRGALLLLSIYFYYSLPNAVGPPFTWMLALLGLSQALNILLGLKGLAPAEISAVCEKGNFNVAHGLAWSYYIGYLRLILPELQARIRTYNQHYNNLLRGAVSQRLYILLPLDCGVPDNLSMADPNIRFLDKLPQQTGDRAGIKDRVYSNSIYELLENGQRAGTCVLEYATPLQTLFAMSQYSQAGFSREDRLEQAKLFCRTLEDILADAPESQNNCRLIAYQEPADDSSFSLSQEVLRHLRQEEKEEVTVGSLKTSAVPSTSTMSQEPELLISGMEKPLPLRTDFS
T1 sequence (Q86WV6 154-342): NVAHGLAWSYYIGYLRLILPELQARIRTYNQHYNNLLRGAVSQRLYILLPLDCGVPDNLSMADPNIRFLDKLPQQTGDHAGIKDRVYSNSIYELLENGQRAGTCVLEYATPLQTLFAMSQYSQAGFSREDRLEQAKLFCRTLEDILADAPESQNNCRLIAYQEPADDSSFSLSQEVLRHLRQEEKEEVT

| SMILES | ΔTm at 100 µM [1] [°C] | EC50 [2] [nM] |
| --- | --- | --- |
| CCn1nc(C)cc1C(=O)Nc1nc2cc(C(N)=O)cc(OC)c2n1CCCCC1COc2cc(C(N)=O)cc3nc(NC(=O)c4cc(C)nn4CC)n1c23 (stereo in doubt) [Example 16, (S)-3-(4-(5-carbamoyl-2-(1-ethyl-3-methyl-1H-pyrazole-5-carboxamido)-7-methoxy-1H-benzo[d]imidazol-1-yl)butyl)-2-(1-ethyl-3-methyl-1H-pyrazole-5-carboxamido)-3,4-dihydro-5-oxa-1,2a-diazaacenaphthylene-7-carboxamide] | 1 |  |
| CCn1nc(C)cc1C(=O)N(C)c1nc2cc(C(N)=O)cc3c2n1CCO3 [Example 3, 2-(1-ethyl-N,3-dimethyl-1H-pyrazole-5-carboxamido)-3,4-dihydro-5-oxa-1,2a-diazaacenaphthylene-7-carboxamide] | 0.7 |  |
| C/C=C/C[C@@H]1COc2cc(C(N)=O)cc3nc(NC(=O)c4cc(C)nn4CC)n1c23 [Example 5-1, (R,E)-3-(but-2-en-1-yl)-2-(1-ethyl-3-methyl-1H-pyrazole-5-carboxamido)-3,4-dihydro-5-oxa-1,2a-diazaacenaphthylene-7-carboxamide] |  | > 20000 |
| C=CC[C@@H]1COc2cc(C(N)=O)cc3nc(NC(=O)c4cc(C)nn4CC)n1c23 [Example 6, (R)-3-allyl-2-(1-ethyl-3-methyl-1H-pyrazole-5-carboxamido)-3,4-dihydro-5-oxa-1,2a-diazaacenaphthylene-7-carboxamide] | -0.5 |  |
| CCC[C@H]1COc2cc(C(N)=O)cc3nc(NC(=O)c4cc(C)nn4CC)n1c23 [Example 7, (S)-2-(1-ethyl-3-methyl-1H-pyrazole-5-carboxamido)-3-propyl-3,4-dihydro-5-oxa-1,2a-diazaacenaphthylene-7-carboxamide] | 5.4 |  |
| CCn1nc(C)cc1C(=O)Nc1nc2cc(C(N)=O)cc(OCCO)c2n1CCC[C@H]1COc2cc(C(N)=O)cc3nc(NC(=O)c4cc(C)nn4CC)n1c23 [Example 20, (S)-3-(3-(5-carbamoyl-2-(1-ethyl-3-methyl-1H-pyrazole-5-carboxamido)-7-(2-hydroxyethoxy)-1H-benzo[d]imidazol-1-yl)propyl)-2-(1-ethyl-3-methyl-1H-pyrazole-5-carboxamido)-3,4-dihydro-5-oxa-1,2a-diazaacenaphthylene-7-carboxamide] | 13 | 100 |
| CCn1nc(C)cc1C(=O)Nc1nc2cc(C(N)=O)cc(OCCCOP(=O)(O)O)c2n1CCC[C@H]1COc2cc(C(N)=O)cc3nc(NC(=O)c4cc(C)nn4CC)n1c23 [Example 23, (S)-3-((5-carbamoyl-1-(3-(7-carbamoyl-2-(1-ethyl-3-methyl-1H-pyrazole-5-carboxamido)-3,4-dihydro-5-oxa-1,2a-diazaacenaphthylen-3-yl)propyl)-2-(1-ethyl-3-methyl-1H-pyrazole-5-carboxamido)-1H-benzo[d]imidazol-7-yl)oxy)propyl dihydrogen phosphate] | 11 | 700 |
| C=CC[C@H]1CN(C)c2cc(C(N)=O)cc3nc(NC(=O)c4cc(C)nn4CC)n1c23 [Example 31, (S)-4-allyl-2-(1-ethyl-3-methyl-1H-pyrazole-5-carboxamido)-6-methyl-5,6-dihydro-4H-imidazo[1,5,4-de]quinoxaline-8-carboxamide] |  | 2400 |

More lines, now with the values ahead:

| ΔTm at 100 µM [1] [°C] | EC50 [2] [nM] | SMILES |
| --- | --- | --- |
| 1.1 |  | CCn1nc(C)cc1C(=O)Nc1nc2cc(C(N)=O)cc3c2n1CCO3 [Example 2, 2-(1-ethyl-3-methyl-1H-pyrazole-5-carboxamido)-3,4-dihydro-5-oxa-1,2a-diazaacenaphthylene-7-carboxamide] |
| 4.6 |  | CCn1nc(C)cc1C(=O)Nc1nc2cc(C(N)=O)cc3c2n1[C@@H](CCCNC(=O)OCc1ccccc1)CO3 [Example 4, (S)-benzyl (3-(7-carbamoyl-2-(1-ethyl-3-methyl-1H-pyrazole-5-carboxamido)-3,4-dihydro-5-oxa-1,2a-diazaacenaphthylen-3-yl)propyl)carbamate] |
| 7.5 | 2600 | CCC=CC[C@H]1COc2cc(C(N)=O)cc3nc(NC(=O)c4cc(C)nn4CC)n1c23 [Example 8, (S)-2-(1-ethyl-3-methyl-1H-pyrazole-5-carboxamido)-3-(pent-2-en-1-yl)-3,4-dihydro-5-oxa-1,2a-diazaacenaphthylene-7-carboxamide] |
| -0.1 |  | CCn1nc(C)cc1C(=O)Nc1nc2cc(C(N)=O)cc3c2n1[C@@H](CC(O)CO)CO3 (stereo partly drawn) [Example 9, (3S)-3-(2,3-dihydroxypropyl)-2-(1-ethyl-3-methyl-1H-pyrazole-5-carboxamido)-3,4-dihydro-5-oxa-1,2a-diazaacenaphthylene-7-carboxamide] |
| 2 |  | CCn1nc(C)cc1C(=O)Nc1nc2cc(C(N)=O)cc(OC)c2n1CCCNCCC1COc2cc(C(N)=O)cc3nc(NC(=O)c4cc(C)nn4CC)n1c23 (stereo not shown) [Example 17, 3-(2-((3-(5-carbamoyl-2-(1-ethyl-3-methyl-1H-pyrazole-5-carboxamido)-7-methoxy-1H-benzo[d]imidazol-1-yl)propyl)amino)ethyl)-2-(1-ethyl-3-methyl-1H-pyrazole-5-carboxamido)-3,4-dihydro-5-oxa-1,2a-diazaacenaphthylene-7-carboxamide] |
| 13 | 60 | CCn1nc(C)cc1C(=O)Nc1nc2cc(C(N)=O)cc(OCCCOC)c2n1CCC[C@H]1COc2cc(C(N)=O)cc3nc(NC(=O)c4cc(C)nn4CC)n1c23 [Example 21, (S)-3-(3-(5-carbamoyl-2-(1-ethyl-3-methyl-1H-pyrazole-5-carboxamido)-7-(3-methoxypropoxy)-1H-benzo[d]imidazol-1-yl)propyl)-2-(1-ethyl-3-methyl-1H-pyrazole-5-carboxamido)-3,4-dihydro-5-oxa-1,2a-diazaacenaphthylene-7-carboxamide] |
|  | > 20000 | C=CCC1CCCOc2cc(C(N)=O)cc3nc(NC(=O)c4cc(C)nn4CC)n1c23 (stereo not shown) [Example 27, 10-allyl-1-(1-ethyl-3-methyl-1H-pyrazole-5-carboxamido)-7,8,9,10-tetrahydro-6-oxa-2,10a-diazacycloocta[cd]indene-4-carboxamide] |
|  | > 20000 | CCn1nc(C)cc1C(=O)Nc1nc2cc(C(N)=O)cc3c2n1[C@@H](C/C=C/CC(CC(=O)c1cc2cc(OC)c(OC)cc2s1)C(=O)O)CO3 (stereo partly drawn) [Example 28, (E)-6-((S)-7-carbamoyl-2-(1-ethyl-3-methyl-1H-pyrazole-5-carboxamido)-3,4-dihydro-5-oxa-1,2a-diazaacenaphthylen-3-yl)-2-(2-(5,6-dimethoxybenzo[b]thiophen-2-yl)-2-oxoethyl)hex-4-enoic acid] |
|  | 12000 | C=CC[C@H]1CNc2cc(C(N)=O)cc3nc(NC(=O)c4cc(C)nn4CC)n1c23 [Example 29, (S)-4-allyl-2-(1-ethyl-3-methyl-1H-pyrazole-5-carboxamido)-5,6-dihydro-4H-imidazo[1,5,4-de]quinoxaline-8-carboxamide] |
|  | 1500 | C=CC[C@H]1CN(CCCOC)c2cc(C(N)=O)cc3nc(NC(=O)c4cc(C)nn4CC)n1c23 [Example 30, (S)-4-allyl-2-(1-ethyl-3-methyl-1H-pyrazole-5-carboxamido)-6-(3-methoxypropyl)-5,6-dihydro-4H-imidazo[1,5,4-de]quinoxaline-8-carboxamide] |
